The results in this text go back to PubChem BioAssay (NCI).

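Each compound was tested at five concentrations against cells in 96-well plates for 48 hours. TGI: total growth inhibition.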

Test systems include CCRF-CEM leukemia; MALME-3M melanoma; NCI-H460 lung; SF-268 CNS; HCC-2998 colon; UACC-257 melanoma; 786-0 renal; HL-60(TB) leukemia; IGROV1 ovarian; NCI-H23 lung; RPMI-8226 leukemia; A549 NSCLC; HOP-62 NSCLC; SW-620 colon; SK-MEL-5 melanoma; SNB-75 CNS.
Holding throughout (test): NCI anticancer screen, dose series, 48 h

In the case of `COc1ccc([C@H]2[C@@H]3CCc4ccccc4C3=NN2C(N)=S)cc1OC`, the TGI in the assay on CCRF-CEM leukemia, in the assay with MALME-3M melanoma, with NCI-H460 lung, in the assay with SF-268 CNS, in the assay on HCC-2998 colon and with UACC-257 melanoma was over 100 µM throughout. The TGI in the assay on 786-0 renal was over 100 µM; in the assay on HL-60(TB) leukemia, 54.8 µM; with IGROV1 ovarian it was over 100 µM; in the assay on NCI-H23 lung it was over 100 µM; in the assay with RPMI-8226 leukemia, over 100 µM; in the assay with A549 NSCLC it was over 100 µM. Moreover, the TGI with HOP-62 NSCLC and in the assay with SW-620 colon was over 100 µM each time.

With `CCOC(=O)/C=C/C1=C(Br)[C@@]2(C)CC[C@@H]3c4ccc(O)cc4CC[C@H]3[C@@H]2C1`, the TGI in the assay with CCRF-CEM leukemia is 32.3 µM; in the assay on MALME-3M melanoma, 24.3 µM; in the assay on NCI-H460 lung, 28.4 µM; in the assay with SF-268 CNS it was 33 µM; in the assay on HCC-2998 colon it was 28.8 µM; in the assay on UACC-257 melanoma, 26.8 µM. The TGI in the assay with 786-0 renal came out at 25.4 µM; in the assay with HL-60(TB) leukemia, 34 µM; in the assay on IGROV1 ovarian, 24.7 µM; with NCI-H23 lung it was 26.6 µM; with RPMI-8226 leukemia, 6.6 µM; in the assay on A549 NSCLC, 30.5 µM. The TGI in the assay on HOP-62 NSCLC was 27.5 µM; in the assay with SW-620 colon it was 37.3 µM; in the assay with SK-MEL-5 melanoma, 26.8 µM.

As for `C[C@@H]1C[C@@H]2C(=O)N(c3ccccc3)C(=O)[C@@H]2c2[nH]c3ccc(Br)cc3c21`, the TGI was over 100 µM in the assay with CCRF-CEM leukemia; over 100 µM with MALME-3M melanoma; over 100 µM with NCI-H460 lung; 41.9 µM in the assay with SNB-75 CNS; over 100 µM in the assay on SF-268 CNS; over 100 µM in the assay with HCC-2998 colon. Moreover, the TGI with UACC-257 melanoma is over 100 µM; in the assay on 786-0 renal, over 100 µM; in the assay with HL-60(TB) leukemia, over 100 µM; with IGROV1 ovarian, over 100 µM; in the assay on NCI-H23 lung, over 100 µM; in the assay on A549 NSCLC, 90.1 µM. In addition, the TGI is 47.6 µM with HOP-62 NSCLC, over 100 µM in the assay on SW-620 colon and over 100 µM in the assay on SK-MEL-5 melanoma.

With `N#CC(C(=S)Nc1ccccc1)=C1Nc2ccccc2N1`, the TGI in the assay on CCRF-CEM leukemia, in the assay on MALME-3M melanoma, in the assay with NCI-H460 lung, in the assay on SNB-75 CNS, in the assay with SF-268 CNS and with HCC-2998 colon was over 10 µM in each case. Also, the TGI with UACC-257 melanoma, in the assay on 786-0 renal, with HL-60(TB) leukemia, with NCI-H23 lung, in the assay with RPMI-8226 leukemia and in the assay on A549 NSCLC was over 10 µM in each case. Besides, the TGI in the assay on HOP-62 NSCLC, with SW-620 colon and in the assay with SK-MEL-5 melanoma was over 10 µM in each case.

Turning to `COC(=O)[C@H]1C2CC[C@@H]3C45C[C@@H](c6ccoc6)O[C@@H]4O[C@@H](O2)C31CCC5C` (stereo partly drawn), the TGI with CCRF-CEM leukemia, in the assay with MALME-3M melanoma, with NCI-H460 lung, in the assay on SF-268 CNS, in the assay on HCC-2998 colon and with UACC-257 melanoma was over 100 µM throughout. Further, the TGI in the assay on 786-0 renal, in the assay on HL-60(TB) leukemia, in the assay on IGROV1 ovarian, in the assay with NCI-H23 lung, in the assay on RPMI-8226 leukemia and with A549 NSCLC was over 100 µM in each case. The TGI with HOP-62 NSCLC, in the assay with SW-620 colon and in the assay with SK-MEL-5 melanoma was over 100 µM in each case.

`CC1=C(c2ccccc2)CON(c2ccccc2)C1`: the TGI with CCRF-CEM leukemia, with MALME-3M melanoma, with NCI-H460 lung, in the assay with SF-268 CNS, in the assay with HCC-2998 colon and in the assay with UACC-257 melanoma was over 100 µM each time. Moreover, the TGI was over 100 µM in the assay on 786-0 renal; 76.2 µM in the assay on HL-60(TB) leukemia; over 100 µM in the assay on IGROV1 ovarian; over 100 µM in the assay with NCI-H23 lung; over 100 µM with RPMI-8226 leukemia; over 100 µM in the assay on A549 NSCLC. The TGI in the assay with HOP-62 NSCLC was over 100 µM; in the assay with SW-620 colon, over 100 µM; in the assay with SK-MEL-5 melanoma it was 47.5 µM.

For `COc1ccc(/C=N/NC(=O)CSc2nc(-c3ccccc3)c(-c3ccccc3)[nH]2)cc1OC`, the TGI in the assay with CCRF-CEM leukemia was over 100 µM; in the assay on MALME-3M melanoma it was 35.8 µM; in the assay with NCI-H460 lung, 91.6 µM; with SNB-75 CNS it was 77 µM; in the assay with SF-268 CNS it was over 100 µM; with UACC-257 melanoma, 57.3 µM. In addition, the TGI is 81 µM in the assay with 786-0 renal; 42.3 µM with HL-60(TB) leukemia; 55.5 µM in the assay with IGROV1 ovarian; 76.7 µM with NCI-H23 lung; 51.8 µM in the assay on RPMI-8226 leukemia; over 100 µM in the assay with A549 NSCLC. Also, the TGI was 72.5 µM with HOP-62 NSCLC, over 100 µM with SW-620 colon and 31.3 µM in the assay on SK-MEL-5 melanoma.

Consider `CCOC(=O)/C(=C/c1ccccc1)N(CC)CC`, for which the TGI in the assay with CCRF-CEM leukemia, in the assay on MALME-3M melanoma, in the assay on NCI-H460 lung, in the assay on SF-268 CNS, in the assay with HCC-2998 colon and in the assay on UACC-257 melanoma was over 100 µM in each case. Also, the TGI in the assay with 786-0 renal, with HL-60(TB) leukemia, with IGROV1 ovarian, with NCI-H23 lung, in the assay with RPMI-8226 leukemia and in the assay on A549 NSCLC was over 100 µM in each case. Besides, the TGI in the assay with HOP-62 NSCLC, in the assay with SW-620 colon and in the assay with SK-MEL-5 melanoma was over 100 µM in each case.

Consider `O=C(c1nc2ccc(Cl)cc2[nH]c1=O)C(O)c1ccco1` (stereo not drawn), for which the TGI in the assay with CCRF-CEM leukemia, in the assay on MALME-3M melanoma, with NCI-H460 lung, with SNB-75 CNS, in the assay on SF-268 CNS and with HCC-2998 colon was over 100 µM each time. The TGI with UACC-257 melanoma, in the assay with 786-0 renal, in the assay with HL-60(TB) leukemia, in the assay on IGROV1 ovarian, with NCI-H23 lung and with A549 NSCLC was over 100 µM in each case. Also, the TGI with SW-620 colon and with SK-MEL-5 melanoma was over 100 µM throughout.
